Key:
[1] = molecular target: recombinant H. pylori MurI (Helicobacter pylori, UniProt Q9ZLT0)
Excerpt: Kinetic constant for recombinant MurI were estimated by assaying its activity at various concentrations of protein and D-glutamic acid as described above.

[2] = molecular target: T1, H. pylori MurI A75T mutant (Helicobacter pylori, UniProt Q9ZLT0, A75T); details: reverse direction
T1 sequence (Q9ZLT0 1-255 A75T): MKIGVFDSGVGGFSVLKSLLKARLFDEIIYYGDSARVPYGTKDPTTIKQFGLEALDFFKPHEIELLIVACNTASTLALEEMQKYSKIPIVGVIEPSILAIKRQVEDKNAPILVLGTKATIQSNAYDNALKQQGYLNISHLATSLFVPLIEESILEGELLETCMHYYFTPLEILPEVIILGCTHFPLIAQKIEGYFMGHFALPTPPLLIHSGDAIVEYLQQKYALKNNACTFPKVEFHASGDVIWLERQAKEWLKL

[3] = tested on: MurI resistance mutant proteins (A75T or E151K); test: Kinetic analysis of MurI resistance mutant proteins, forward direction (L-Glu→D-Glu); format: biochemical, H. pylori
Description: In this assay, the conversion of L-Glutamate to D-Glutamate was monitored spectrophotometrically through a two enzyme coupling system wherein, the production of D-glutamate is coupled to the incorporation of D-Glutamate into UDP-MurNAc-Ala-D-Glu by recombinant E. faecalis MurD, with concomitant hydrolysis of ATP to ADP and inorganic phosphate. […] Initial rates of reaction were determined by following the increase of absorbance at 360 nm in a 100 μL reaction volume containing 85 μL of reaction buffer (58 mM Tris, pH=8.0, 23.5 mM ammonium acetate, 23.5 mM magnesium acetate, 2.94 mM dithiothreitol, 2.94 mM adenosine triphosphate, 0.47 mM UDP-MurNAc-Ala, 0.47 mM MESG, 1.17 units./mL PNP, 16 μg/mL E. faecalis MurD, and 30 nM MurI) and 15 μL of L-Glutamate stock (0.05-10 mM). The increase in optical density at 360 nm was measured continuously in at 96 well microtitre plate in a Microplate Spectrophotometer System (Molecular Devices, SpectraMAX 250).

[4] = molecular target: the molecule itself; test: X-ray crystallography, homodimer
[5] = molecular target: the molecule itself; test: X-ray crystallography (molecular replacement), homodimer

Molecule: N[C@H](CCC(=O)O)C(=O)O [D-glutamate]
- substrate inhibition [1]: Severe substrate inhibition
- Km ([1]; read-out: Km for D-glutamate): 100 µM
- shift of inhibition constant relative to the wild-type enzyme ([2]; mutant enzyme vs wild-type): > 120 fold
- substrate inhibition by D-glutamate ([2]; mutant enzyme): exhibits substrate inhibition

Molecule: N[C@@H](CCC(=O)O)C(=O)O [L-Glu, L-glutamate]
- elevation of KM for L-Glu relative to the native enzyme [3]: 10 fold
- substrate inhibition by L-Glu [3]: no substrate inhibition

B1: Enterococcus faecalis glutamate racemase (MurI), monomer chain of the homodimer (enzyme)
chain: MSNQEAIGLIDSGVGGLTVLKEALKQLPNERLIYLGDTARCPYGPRPAEQVVQFTWEMADFLLKKRIKMLVIACNTATAVALEEIKAALPIPVVGVILPGARAAVKVTKNNKIGVIGTLGTIKSASYEIAIKSKAPAIEVTSLACPKFVPIVESNQYRSSVAKKIVAETLQALQLKGLDTLILGCTHYPLLRPVIQNVMGSHVTLIDSGAETVGEVSMLLDYFDIAHTPEAPTQPHEFYTTGSAKMFEEIASSWLGIENLKAQQIHLGGNEND
notes: also called E. faecalis MurI; E. faecalis glutamate racemase
- binding result [4]: binds

B2: Helicobacter pylori glutamate racemase (MurI), monomer chain of the homodimer (enzyme)
chain: MKIGVFDSGVGGFSVLKSLLKARLFDEIIYYGDSARVPYGTKDPTTIKQFGLEALDFFKPHEIELLIVACNTASALALEEMQKYSKIPIVGVIEPSILAIKRQVEDKNAPILVLGTKATIQSNAYDNALKQQGYLNISHLATSLFVPLIEESILEGELLETCMHYYFTPLEILPEVIILGCTHFPLIAQKIEGYFMGHFALPTPPLLIHSGDAIVEYLQQKYALKNNACTFPKVEFHASGDVIWLERQAKEWLKL
notes: also called H. pylori MurI; H. pylori glutamate racemase
- binding result [4]: binds

B3: Enterococcus faecium glutamate racemase (MurI), monomer chain of the homodimer (enzyme)
chain: MIRLTDNRPIGFIDSGVGGLTVVKEALKQLPNENILFVGDTARCPYGPRPAEQVIQYTWEMTDYLVEQGIKMLVIACNTATAVALEEIKAALSIPVIGVILPGTRAAVKKTQNKQVGIIGTIGTVKSQAYEKALKEKVPELTVTSLACPKFVSVVESNEYHSSVAKKIVAETLAPLTTKKIDTLILGCTHYPLLRPIIQNVMGENVQLIDSGAETVGEVSMLLDYFNLSNSPQNGRTLCQFYTTGSAKLFEEIAEDWLGIGHLNVEHIELGGK
notes: also called E. faecium MurI; EF2
- binding result [5]: binds

Source: patent publication US20050037478A1, “Crystal structure of glutamate racemase (MurI)” (priority 2002, published 2005)
